From patent US20250282799A1, “SUBSTITUTED PYRIDO[4,3-d]PYRIMIDINES AS KRAS MODULATORS” (Alterome Therapeutics, Inc., priority 2023, published 2025)

These compounds were tested on KRAS G12V dependent lung adenocarcinoma cell line, NCI-H441 (assay: Cellular pERK (Thr202/Tyr204) FRET/HTRF assay). Conditions: Homo sapiens, NCI-H441, cellular pERK (Thr202/Tyr204) HTRF, NCI-H441 cells.
Assay type: cell-based
How it was run: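 NCI-H441 cells (KRAS G12V) were seeded and grown overnight at 37 °C, 5% CO2, then treated with compound in DMSO for 1 hr. Lysates were probed with a Eu3+-cryptate/d2 antibody sandwich against pERK1/2 Thr202/Tyr204 and read by HTRF at 665 nm; IC50 from curve fitting.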
Compound `[2H]C([2H])(Oc1nc(N2CCOC[C@H]3[C@H](F)[C@H]32)c2cnc(-c3nc(N)cc4ccc(F)c(Cl)c34)c(F)c2n1)[C@@]12CCCN1C[C@H](F)C2` [Example 152, 8-chloro-7-fluoro-1-(8-fluoro-4-((1S,7S,8S)-8-fluoro-5-oxa-2-azabicyclo[5.1.0]octan-2-yl)-2-(((2R,7aS)-2-fluorotetrahydro-1H-pyrrolizin-7a(5H)-yl)methoxy-d2)pyrido[4,3-d]pyrimidin-7-yl)isoquinolin-3-amine] has an IC50 of 50 to 500 nM. Work on `C#Cc1c(F)ccc2cc(N)cc(-c3ncc4c(N5CCOC[C@H]6[C@H](F)[C@H]65)nc(OC[C@]56C[C@@]7(C[C@@H]7F)CN5CCC65CC5)nc4c3F)c12` (single isomer, unassigned) [Example 234] yielded an IC50 of less than 50 nM. `C#Cc1c(F)ccc2cc(N)cc(-c3ncc4c(N5CCOC[C@H]6[C@H](F)[C@H]65)nc(OC[C@@]56CCCN5C[C@]5(C[C@@H]5F)C6)nc4c3F)c12` (single isomer, unassigned) [Example 255] gave an IC50 of less than 50 nM. Compound `[2H]C([2H])(F)Oc1c(F)ccc2cncc(-c3ncc4c(N5CCOC[C@H]6[C@H](F)[C@H]65)nc(OC([2H])([2H])[C@@]56CCCN5C[C@H](F)C6)nc4c3F)c12` [Example 127, (1S,7S,8S)-8-Fluoro-2-(8-fluoro-7-(6-fluoro-5-(fluoromethoxy-d2)isoquinolin-4-yl)-2-(((2R,7aS)-2-fluorotetrahydro-1H-pyrrolizin-7a(5H)-yl)methoxy-d2)pyrido[4,3-d]pyrimidin-4-yl)-5-oxa-2-azabicyclo[5.1.0]octane] has an IC50 of 500 to 10000 nM. `[2H]C([2H])(F)Oc1c(F)ccc2cccc(-c3ncc4c(N5CCCC[C@H]6[C@H](F)[C@H]65)nc(OC[C@]56C/C(=C\F)CN5CCC65CC5)nc4c3F)c12` [Example 382, (R,E)-7a′-(((8-fluoro-7-(7-fluoro-8-(fluoromethoxy-d2)naphthalen-1-yl)-4-((1S,7R,8S)-8-fluoro-2-azabicyclo[5.1.0]octan-2-yl)pyrido[4,3-d]pyrimidin-2-yl)oxy)methyl)-6′-(fluoromethylene)hexahydrospiro [cyclopropane-1,1′-pyrrolizine]] showed an IC50 of less than 50 nM. `Nc1cc(Cl)c(C(F)(F)F)c(-c2ncc3c(N4CCCC[C@H]5[C@H](F)[C@H]54)nc(OC[C@]45CC(=C(F)F)CN4CCC54CC4)nc3c2F)c1` [Example 411, 3-chloro-5-(2-(((R)-6′-(difluoromethylene)tetrahydrospiro [cyclopropane-1,1′-pyrrolizin]-7a′(5′H)-yl)methoxy)-8-fluoro-4-((1S,7R,8S)-8-fluoro-2-azabicyclo[5.1.0]octan-2-yl)pyrido[4,3-d]pyrimidin-7-yl)-4-(trifluoromethyl)aniline] gave an IC50 of 500 to 10000 nM. With `[2H]C([2H])(F)Oc1c(F)ccc2cc(N)cc(-c3ncc4c(N5CCCC[C@H]6[C@H](F)[C@H]65)nc(OC([2H])([2H])[C@@]56CCCN5C[C@H](F)C6)nc4c3F)c12` [Example 100, 6-Fluoro-4-(8-fluoro-4-((1S,7R,8S)-8-fluoro-2-azabicyclo[5.1.0]octan-2-yl)-2-(((2R,7aS)-2-fluorotetrahydro-1H-pyrrolizin-7a(5H)-yl)methoxy-d2)pyrido[4,3-d]pyrimidin-7-yl)-5-(fluoromethoxy-d2)naphthalen-2-amine] the IC50 was less than 50 nM. `C#Cc1c(F)ccc2cc(O)cc(-c3ncc4c(N5CCCO[C@@H]6C[C@@H]65)nc(OC[C@@]5(C)CCCN5)nc4c3F)c12` [Example 282, 4-(4-((1R,7S)-2-oxa-6-azabicyclo[5.1.0]octan-6-yl)-8-fluoro-2-(((R)-2-methylpyrrolidin-2-yl)methoxy)pyrido[4,3-d]pyrimidin-7-yl)-5-ethynyl-6-fluoronaphthalen-2-ol] was tested, and the IC50 was 500 to 10000 nM. For `[2H]C([2H])(Oc1nc(N2CCOC[C@H]3[C@H](F)[C@H]32)c2cnc(-c3c(F)c(N)c(F)c(C)c3C(F)(F)F)c(F)c2n1)[C@@]12CCCN1C[C@H](F)C2` [Example 279, 2,6-difluoro-3-(8-fluoro-4-((1S,7S,8S)-8-fluoro-5-oxa-2-azabicyclo[5.1.0]octan-2-yl)-2-(((2R,7aS)-2-fluorotetrahydro-1H-pyrrolizin-7a(5H)-yl)methoxy-d2)pyrido[4,3-d]pyrimidin-7-yl)-5-methyl-4-(trifluoromethyl)aniline], the IC50 was 50 to 500 nM. Compound `[2H]C1([2H])CC2(CC2)[C@@]2(C([2H])([2H])Oc3nc(N4CCOC[C@H]5[C@H](F)[C@H]54)c4cnc(-c5cc(N)cc6ccc(F)c(C#C)c56)c(F)c4n3)C[C@]([2H])(F)CN12` (single isomer, unassigned) [Example 203] has an IC50 of less than 50 nM. For `[2H]C([2H])(Oc1nc(N2CCOC[C@H]3[C@H](F)[C@H]32)c2cnc(-c3cc(N)c(F)c(Cl)c3C(F)(F)F)c(F)c2n1)[C@@]12CCCN1C[C@H](F)C2` [Example 289, 3-chloro-2-fluoro-5-(8-fluoro-4-((1S,7S,8S)-8-fluoro-5-oxa-2-azabicyclo[5.1.0]octan-2-yl)-2-(((2R,7aS)-2-fluorotetrahydro-1H-pyrrolizin-7a(5H)-yl)methoxy-d2)pyrido[4,3-d]pyrimidin-7-yl)-4-(trifluoromethyl)aniline], the IC50 was less than 50 nM. With `[2H]C([2H])(Oc1nc(N2CCOC[C@H]3[C@H](F)[C@H]32)c2cnc(-c3cc(N)cc4ccc(F)c(C#C)c34)c(F)c2n1)[C@@]12CCCN1[C@H](C)[C@H](F)C2` [Example 333, 5-Ethynyl-6-fluoro-4-(8-fluoro-2-(((2R,3R,7aS)-2-fluoro-3-methyltetrahydro-1H-pyrrolizin-7a(5H)-yl)methoxy-d2)-4-((1S,7S,8S)-8-fluoro-5-oxa-2-azabicyclo[5.1.0]octan-2-yl)pyrido[4,3-d]pyrimidin-7-yl)naphthalen-2-amine] the IC50 was less than 50 nM.

Same assay, conditions: Homo sapiens, NCI-H441, cellular pERK HTRF, NCI-H441 (KRAS G12V) cells
With `C#Cc1c(F)ccc2cc(N)cc(-c3ncc4c(N5CCOCC6C(Cl)C65)nc(OC[C@]56CC(=C)CN5CCC65CC5)nc4c3C)c12` (stereo partly drawn) [Example 444, 4-(4-(8-chloro-5-oxa-2-azabicyclo[5.1.0]octan-2-yl)-8-methyl-2-(((R)-6′-methylenetetrahydrospiro[cyclopropane-1,1′-pyrrolizin]-7a′(5′H)-yl)methoxy)pyrido[4,3-d]pyrimidin-7-yl)-5-ethynyl-6-fluoronaphthalen-2-amine] the IC50 was less than 50 nM. Compound `[2H]C([2H])(Oc1nc(N2CCOC[C@H]3[C@H](F)[C@H]32)c2cnc(-c3cc(N)cc4ccc(F)c(C#C)c34)c(C)c2n1)[C@]12CC(=C)CN1CCC21CC1` [Example 442, 5-Ethynyl-6-fluoro-4-(4-((1S,7S,8S)-8-fluoro-5-oxa-2-azabicyclo[5.1.0]octan-2-yl)-8-methyl-2-(((R)-6′-methylenetetrahydrospiro[cyclopropane-1,1′-pyrrolizin]-7a′(5′H)-yl)methoxy-d2)pyrido[4,3-d]pyrimidin-7-yl)naphthalen-2-amine] has an IC50 of less than 50 nM. `C#Cc1c(F)ccc2cc(N)cc(-c3ncc4c(N5CCOC[C@H]6[C@H](F)[C@H]65)nc(OCC5CCC6COCCN65)nc4c3F)c12` (stereo partly drawn) [Example 477, 5-ethynyl-6-fluoro-4-(8-fluoro-4-((1S,7S,8S)-8-fluoro-5-oxa-2-azabicyclo[5.1.0]octan-2-yl)-2-((hexahydro-1H-pyrrolo[2,1-c][1,4]oxazin-6-yl)methoxy)pyrido[4,3-d]pyrimidin-7-yl)naphthalen-2-amine] gave an IC50 of less than 50 nM.

Same assay, conditions: Homo sapiens, NCI-H441, pERK HTRF, NCI-H441 cells (KRAS G12V)
Compound `[2H]C([2H])(Oc1nc(N2CCOC[C@H]3[C@H](F)[C@H]32)c2cnc(-c3cccc4ccc(F)c(C#C)c34)c(F)c2n1)[C@@]12CCCN1C[C@H](F)C2` [Example 45, (1S,7S,8S)-2-(7-(8-Ethynyl-7-fluoronaphthalen-1-yl)-8-fluoro-2-(((2R,7aS)-2-fluorotetrahydro-1H-pyrrolizin-7a(5H)-yl)methoxy-d2)pyrido[4,3-d]pyrimidin-4-yl)-8-fluoro-5-oxa-2-azabicyclo[5.1.0]octane] has an IC50 of less than 50 nM. `[2H]C([2H])(Oc1nc(N2CCCO[C@H]3C[C@H]32)c2cnc(-c3ccc(F)c4sc(N)c(C#N)c34)c(F)c2n1)[C@@]12CCCN1C[C@H](F)C2` [Example 39, 4-(4-((1S,7R)-2-Oxa-6-azabicyclo[5.1.0]octan-6-yl)-8-fluoro-2-(((2R,7aS)-2-fluorotetrahydro-1H-pyrrolizin-7a(5H)-yl)methoxy-d2)pyrido[4,3-d]pyrimidin-7-yl)-2-amino-7-fluorobenzo[b]thiophene-3-carbonitrile] showed an IC50 of 50 to 500 nM. `[2H]C([2H])(Oc1nc(N2CCOC[C@H]3[C@@H]2C3(F)F)c2cnc(-c3cc(N)cc4cc(F)c(F)c(C#C)c34)c(F)c2n1)[C@@]12CCCN1C[C@H](F)C2` [Example 20, 4-(4-((1R,7R)-8,8-Difluoro-5-oxa-2-azabicyclo[5.1.0]octan-2-yl)-8-fluoro-2-(((2R,7aS)-2-fluorotetrahydro-1H-pyrrolizin-7a(5H)-yl)methoxy-d2)pyrido[4,3-d]pyrimidin-7-yl)-5-ethynyl-6,7-difluoronaphthalen-2-amine] showed an IC50 of 500 to 10000 nM.
